Reference: patent US9352010B2, “Treatment of HIV-1 infection and AIDS” (The J. David Gladstone Institutes, priority 2011, dated 2016)

Test system: HLAC CD4 T-cells
Assay: Spinoculation of HLAC with HIV-1, CD4 T-cell depletion
Assay type: cell-based, human
Settings: ≧2 μg p24gag/200 μl, within 12 hours
Method: (A) The spinoculation procedure. (B) Flow cytometry of viable CD4 versus CD8-T-cells in HLAC three days after spinoculation in the presence of the indicated drugs. Data represent live-gated cells, based on the forward-scatter versus side-scatter profile of the complete culture. Of note, apoptotic cells were included in the analysis of caspases activity and cytokine expression (FIG. 10E, F). Drugs concentrations: AZT 5 μM; Efavirenz 100 nM; AMD3100 250 nM; T20 10 μg/ml. The data are representative results of six independent experiments with six different donors. […] (C) Highly permissive SupT1 CD4 T leukemic cells were infected with NL4-3 and cultivated for 3 days to allow substantial infection but not syncytia formation. […] After 2.5 days of additional culture, the extent of syncytia formation in each sample was evaluated by light microscopy. […] Results are representative of three independent experiments.
Fresh HLAC cells are cultured overnight in a V-bottom 96-well plate (1×10^6 cells/well) in the presence of drugs and then chilled on ice. […] The cold temperature allows virion attachment but prevents virion fusion. HIV-coated cells are then tightly packed into a pellet by high-speed centrifugation (1200 g) for 2 hours at 4° C. This step presses the virus between cell membranes, exerting a uniform and consistent attachment. […]

Row | Molecule | CD4 T-cell killing after spinoculation with high doses of HIV-1
1 | O=C1Nc2ccc(Cl)cc2[C@@](C#CC2CC2)(C(F)(F)F)O1 [efavirenz] | is not prevented
2 | enfuvirtide | prevented CD4 T-cell killing
